Data taken from US9556437B2, “FAT1 gene in cancer and inflammation” (DEPARTMENT OF BIOTECHNOLOGY (DBT), priority 2012, dated 2017).
Entries after “also recorded” stand apart in the source; their conditions may differ.

What was measured:
Type in all cases: cell-based, human
[1] = system: ECM protease activity; test: Gelatin zymography; details: conditioned media of U87MG cells, 72 hrs, vs siControl
Method: Gelatin Zymography: U87MG cells (2.5×10^5 cells/flask) were plated into 25 cm^2 flask. Transfection was performed on day 1 and after 72 hrs, the conditioned medium was collected, clarified by centrifugation, concentrated by Centricon YM-30 (10:1 concentration; Millipore, Billerica, Mass., USA), and separated in non-reducing polyacrylamide gels containing 0.1% (wt/vol) gelatin. The gel was incubated with 1× Zymogram renaturing buffer for 30 min at room temperature, 1× Zymogram developing buffer for 30 min at room temperature, and 1× Zymogram developing buffer at 37° C. for overnight. The gel was then stained for protein with 0.25% (w/v) Coomassie Blue R-250 and then destained with Coomassie R-250 destaining solution (Methanol:Acetic acid:Water (50:10:40). Proteolysis was detected as a white zone in a dark field.

[2] = system: PDCD4; test: PDCD4 mRNA expression by q-PCR; details: 72 hrs post siRNA transfection
Method: (§1) Cell Culture and siRNA Transfection: The human glioma cell lines U87MG, U373, A172, T98G, GOS3 and SW1088 were obtained from ATCC; Rockville, Md., cultured in DMEM (Sigma-Aldrich, Switzerland) supplemented with 10% (v/v) FCS (Sigma-Aldrich), 3.7 g/l sodium bicarbonate (Sigma-Aldrich), Ciprofloxacin 10 μg/ml and 5% CO2 at 37° C. For transfection, 2×10^5 cells were seeded per 25 cm^2 flask. After 24 hrs, cells were transfected with FAT1 siRNA and universal medium GC control siRNA (Invitrogen) according to the manufacturer's protocol with a final concentration of 20 nM of siRNA using LIPOFECTAMINE 2000 (Invitrogen) and Opti-Mem media (Invitrogen). After 4 hrs of siRNA transfection, the media was supplemented with DMEM containing 2×FCS. The ability of each siRNA to mediate knockdown of FAT1 mRNA was confirmed using qRT-PCR. Photomicrographs of the cells were taken using an inverted phase contrast microscope (Nikon TMS, Phase contrast microscope, Japan). For simultaneous knockdown of FAT1 and PDCD4, siRNA from Dharmacon were used. Transfection was performed as earlier with 50 nM of FAT1 siRNA along with 50 nM of PDCD4 siRNA or 50 nM of control siRNA.
cDNA Synthesis and Quantitative PCR: Total RNA was isolated from cells at appropriate time point (vide supra) using TRIzol reagent (Invitrogen), quantified using a Nanodrop ND-1000 spectrophotometer. DNase (Ambion) treatment was given and 1 μg of total RNA was used for cDNA synthesis, done by Fermentas RevertAid™ First Strand cDNA Synthesis Kit using random decamers. PCR reactions were carried in 10 μL reaction volumes (2.5 μL of 1:5 diluted cDNA, […] of primer mix (0.5 pmol/μL as final concentration of each primer), 1 μL, of 10× Taq Buffer A, 0.5 U Taq polymerase (Bangalore Genei, Bangalore, India), 1 μL Syto9 (Invitrogen), 0.25 μL of 10 mM dNTPs (MBI Fermentas, Thermo Fisher Scientific, Rockford, Ill. USA), and 4.6 μL of nuclease-free water (Ambion) on a RotorGene6000 Real Time PCR in triplicates. The detail of the primers used is given in Table 1. ΔCt values were defined as target gene Ct minus 18s RNA Ct and averaged for each triplicate sample. Statistical significance was determined by Student's t-test analysis (P<0.05).

[3] = system: FAT1 mRNA; test: FAT1 knockdown by siRNA, q-PCR for FAT1; details: U87MG cell line
Method: as §1
(§2) cDNA Synthesis and Quantitative PCR: Total RNA was isolated from cells at appropriate time point (vide supra) using TRIzol reagent (Invitrogen), quantified using a Nanodrop ND-1000 spectrophotometer. […]

[4] = system: phospho-c-jun; test: Western blot phospho-c-jun (Ser63); details: U87MGsiFAT1 vs siControl
Method: Western Blotting Analyses: Cells were lysed in triple detergent buffer containing protease and phosphatase inhibitors (Sigma Aldrich), lysates were quantified by BCA kit (Pierce, Thermo Fisher Scientific, Rockford, Ill. USA) and electrophoresed in 10% SDS-PAGE and electroblotted on nitrocellulose membrane (Millipore, Billerica, Mass., USA). Membrane was blocked with 5% bovine serum albumin (BSA) in 1×TBS at 4° C. for overnight. Primary and secondary antibody was diluted in 5% BSA and 0.1% tween-20 in 1×TBS. Blot was incubated in primary antibody overnight at 4° C. followed by secondary antibody incubation for 2 hrs at room temperature. Blot was developed by BCIP-NBT (Promega, Madison, Wis., USA) and captured using Alpha Imager EP software.

[5] = system: c-jun; test: c-jun mRNA level by q-PCR; details: U87MGsiFAT1 vs U87MGsiControl
Method: as §1, §2

[6] = system: U87MG cells; test: In vitro Scratch Assay of cell migration
Method: FIGS. 14A to 14D: Effect of NS-398 and FAT1 knockdown simultaneously on Cell Migration by In-vitro Scratch Assay. The in vitro Scratch Assay was performed at 72 hours after culturing cells as follows: At Day 0, 5,000 U87MG cells are plated per well of a 96 well plate. […] (C) Assay of cell migration by the Modified Boyden Chamber Assay under conditions of normoxia and hypoxia. (D) Quantitation of data from (C).
The Scratch Assay is performed at 72 hours after treatment. A scratch is made on the culture surface using a sterile 10 μl tip and cells were allowed to grow. Images were captured after every 3 hrs to monitor the closure of the wound in the culture surface for next 24 hrs.

[7] = system: U87MG cells; test: MTT assay; details: 24, 48, 72 and 96 hrs of transfection, vs siControl
Method: On day 1, siRNA transfection was carried out. 1 ml of OPTIMEM, 50 picomoles of siRNA (siControl and siFAT1) and 3 μl of LIPOFECTAMINE 2000 was used per well. Cells were then analyzed by flow-cytometery after 72 hrs of transfection to assess the cell cycle distribution of individual cells. Cells were fixed in 70% ethanol overnight at −20′C followed by propidium iodide (PI) staining. Florescence was measured on FACS (florescence activated cell sorter, BD Biosciences, Bedford, Mass.). […] On day 1, transfection was carried out. 50 μl of OPTIMEM, 2 picomoles of siRNA (control and FAT1 siRNA) and 0.5 μl of LIPOFECTAMINE 2000 was used per well. After 4 hrs incubation at 37° C., 50 μl 2× media was added per well. After every time point (24, 48, 72 and 96 hrs of transfection), media was removed from wells and 100 μl of MTT (0.2 mg/ml) was added per well and incubated for 2-4 hrs. The formazan crystals formed were dissolved by addition of 100 μl of DMSO and absorbance was measured at 570 nm.

[8] = system: PLAU (Urokinase); test: PLAU mRNA expression by q-PCR; details: U87MGsiFAT1 cells
Method: as §1, §2

## siFAT1: FAT1 specific siRNA (Invitrogen), FAT Stealth RNAi siRNA-I (HSS103567), used for further experiments (sense CCCAACACACCUGUGGUCAUGGUAA; antisense UUACCAUGACCACAGGUGUGUUGGG; Stealth modification, chemistry not fully specified; listed as Homo sapiens)
[1]
  ECM protease activity: decreased; also recorded: reduced protease activity
[2]; A172, vs siControl
  increase in PDCD4 mRNA expression: 2.8 fold
[2]; T98G, vs siControl
  increase in PDCD4 mRNA expression: 3.5 fold
[2]; U87MG, vs siControl
  increase in PDCD4 mRNA expression: 2.4 fold
[2]; U373MG, vs siControl
  increase in PDCD4 mRNA expression: 3.2 fold
[2]; all the GBM cell lines (U87MG, A172, U373 and T98)
  increase in PDCD4 mRNA expression: more than two fold
[3]
  knockdown efficiency among three FAT1 siRNAs: maximum knockdown efficiency
[4]
  c-jun phosphorylation (p-c-jun level): significantly decreased; also recorded: significant reduction
[5]
  c-jun mRNA level: decreased by two folds; also recorded: reduced by two folds
[6]; Scratch Assay at 72 hours after treatment
  inhibition of cell migration: about 50%
[6]; scratch and modified Boyden chamber assays, normoxic or hypoxic conditions (FIG. 14)
  migration ability of cells: reduced
[7]
  cell viability / proliferation by MTT: no variation; also recorded: No significant difference
[8]
  decrease in PLAU mRNA expression: more than 10 fold
